Experimental data reported in patent US20050101560A1, “Method of treating an individual with methyl 1-[N6-(3-iodobenzyl)-adenin-9-yl] beta-D-ibofuronamide” (CAN-FITE BIOPHARMA LTD., priority 2003, published 2005).
Several values for one entry are separate records, joined by “and”; a condition that tells them apart may be missing. Equal entries are not always repeated. Entries after “also recorded” stand apart in the source; their conditions may differ.

Columns and labels:
[1] = system: various tumour cell types; conditions: arresting cell growth at GO/GI phase; Fishman et al, 2000a; cited from earlier work
[2] = Repeat dose study: plasma pharmacokinetics on Days 1 and 7 of 12-hourly oral dosing; type: in vivo, human
Experimental: (§1) Two clinical studies were carried out: a single dose study and a repeat dose study. Both studies were parallel-group, double-blind, dose-rising, and placebo-controlled in design.
(§2) In each group, 1 subject received placebo. […] In each group, 2 subjects received placebo.
(§3) Healthy young men, aged 18-45 years.
(§4) In the repeated dose study, an aqueous 0.5% methylcellulose suspension (Methocel A4M Premium, The Dow Chemical Company) was used. In both studies, the study medication was taken orally as a drink, followed by 50 ml of tap water.
(§5) The following procedures were done: • Safety assesment: laboratory assessments (routine biochemistry and urinalysis), physical examination, 12-lead ECO, ambulatory ECG, pulmonary function testing (FEV1), vital signs (semi-recumbent in the single dose study; semi-recumbent and standing in the repeat dose study).
(§6) Plasma samples were assayed for IB-MECA using LC/MS/MS. The lower limit of quantification (LLOQ) was 0.1 ng/mL. Intra-assay coefficients of variation (CV) were <5.0% and inter-assay CVs were <9.4%.
(§7) Maximum concentration (Cmax) and time to maximum concentration (tmax) were observed values. Other pharmacokinetic parameters (half-life, to AUC; and clearance, CL/F) were calculated by non-compartmental methods using WinNonlin® software (version 3.0, Pharsight, Mountain View, Calif., US). Accumulation indices of Cmax and AUC were calculated as ratio of values at steady state (Day 7) to the values on Day 1.

[3] = Repeat dose study: safety and tolerability; type: in vivo, human; conditions: for safety and tolerability: twice daily (12-hourly) oral dose up to 4 mg
Experimental: as §1, §2, §3, §4, §5
(§8) Data from all subjects who received IB-MECA were included in the analysis of safety and tolerability (adverse events and laboratory safety variables). Numerical data and parameters were summarised using means or medians, and other descriptive statistics, according to the type and distribution of the data.

[4] = Water solubility; type: physicochemical
[5] = Single dose study: safety and tolerability; type: in vivo, human; conditions: for safety and tolerability: single (daily) oral dose up to 5 mg
Experimental: as §1, §2, §3, §4, §5, §8

[6] = system: neutrophils; conditions: cited from earlier work
[7] = system: syngeneic (melanoma, colon carcinoma) and xenograft (colon and prostate carcinoma) mouse models; conditions: cited from earlier work
[8] = Single dose study: plasma pharmacokinetics after a single oral dose; type: in vivo, human; conditions: for AUC(0-48): mean (SD)
Experimental: as §1, §2, §3, §4, §5, §6, §7

[9] = 2 mg oral every 12 h, Day 1, mean (SD), n = 5
[10] = 2 mg oral every 12 h, Day 7, mean (SD), n = 5
[11] = 3 mg oral every 12 h, Day 1, mean (SD), n = 5
[12] = 3 mg oral every 12 h, Day 7, mean (SD), n = 5
[13] = 4 mg oral every 12 h, Day 1, mean (SD), n = 5
[14] = 4 mg oral every 12 h, Day 7, mean (SD), n = 5
[15] = 5 mg oral every 12 h, Day 1, mean (SD), n = 5
[16] = 5 mg oral every 12 h, Day 7, mean (SD), n = 5

## CNC(=O)[C@H]1O[C@@H](n2cnc3c(NCc4cccc(I)c4)ncnc32)[C@H](O)[C@@H]1O [IB-MECA, methyl 1-[N6-(3-iodobenzyl)-adenin-9-yl]-β-D-ibofuronamide]
[1]
  effect on tumour cell growth: cytostatic effect
[2]; [9]
  AUC(0-12): 155.2 (39.1) ng · h/mL
  AUC(inf): 207.4 (52.0) ng · h/mL
[2]; 2 mg oral every 12 h, Day 1, median (range), n = 5
  tmax: 2 (1-4) h
[2]; [10]
  AUC(0-12): 242.4 (41.4) ng · h/mL
  AUC(0-24): 346.3 (64.0) ng · h/mL
[2]; 2 mg oral every 12 h, Day 7, median (range), n = 5
  tmax: 2 (1-2) h
[2]; [11]
  AUC(0-12): 304.5 (19.5) ng · h/mL
  AUC(inf): 423.5 (27.5) ng · h/mL
[2]; 3 mg oral every 12 h, Day 1, median (range), n = 5
  tmax: 2 (1-2) h
[2]; [12]
  AUC(0-12): 341.6 (38.1) ng · h/mL
  AUC(0-24): 512.1 (74.1) ng · h/mL
[2]; 3 mg oral every 12 h, Day 7, median (range), n = 5
  tmax: 1 (1-2) h
[2]; [13]
  AUC(0-12): 297.0 (57.2) ng · h/mL
  AUC(inf): 400.2 (85.7) ng · h/mL
[2]; 4 mg oral every 12 h, Day 1, median (range), n = 5
  tmax: 2 (1-2) h
[2]; [14]
  AUC(0-12): 458.3 (54.8) ng · h/mL
  AUC(0-24): 640.3 (73.7) ng · h/mL
[2]; 4 mg oral every 12 h, Day 7, median (range), n = 5
  tmax: 1 (1-2) h
[2]; [15]
  AUC(0-12): 461.6 (157.4) ng · h/mL
  AUC(inf): 596.1 (196.6) ng · h/mL
[2]; 5 mg oral every 12 h, Day 1, median (range), n = 5
  tmax: 2 (1-2) h
[2]; [16]
  AUC(0-12): 601.0 (163.6) ng · h/mL
  AUC(0-24): 818.4 (214.0) ng · h/mL
[2]; 5 mg oral every 12 h, Day 7, median (range), n = 5
  tmax: 2 (2-2) h
[2]; Day 1 and steady state (Day 7)
  dose proportionality of plasma concentrations: dose proportional
[2]; repeated oral doses 2-5 mg every 12 h, overall
  tmax: 1 to 2 h
[2]; repeated oral doses every 12 h
  time at which steady state was reached: ≤ 3 days
[2]; repeated oral doses every 12 h for 7 days
  change of pharmacokinetics after repeated dosing: did not change
[2]; repeated oral doses, Day 7, independent of dose
  Half-life at steady state: 9 to 10 h
[2]; repeated oral doses, independent of dose
  apparent plasma clearance (CL/F): 5 to 10 L/h
[3]; 5 mg oral twice daily
  adverse events: some cardiovascular-related adverse events; also recorded: headache and drowsiness were most common
[3]; repeat dose study
  safety tests of blood and urine: no clinically significant changes
[3]; repeat dose study, Day 1
  heart rate: dose-related increase
[3]; repeat dose study, Day 7 versus Day 1
  heart rate effect: clearly smaller
[3]; repeated doses of 5 mg 12-hourly
  adverse events within 12 h of dosing (number): 13
[3]; repeated doses of up to 4 mg 12-hourly
  adverse events within 12 h of dosing (number): 2
[3]
  safety and tolerability: safe and well tolerated
[3]; listed as 13-MCA
  safety and tolerability: well tolerated
[3]; twice-daily therapeutic regimen
  maximum tolerated dose: 4 mg
[4]
  water solubility: not water soluble
[5]; healthy adults, oral dosing
  blood level correlated with side effects: exceeding 160 nM and > 80 ng/ml
[5]
  safety and tolerability: safe and well tolerated
[5]; listed as 13-MCA
  safety and tolerability: well tolerated
[5]; single daily oral dose 10 mg
  side effects: some cardiovascular-related side effects
[5]; single dose 5 mg, four subjects
  change in resting heart rate: small increase
[5]; single dose of 10 mg
  adverse events within 12 h of dosing (number): 8
[5]; single dose study
  safety tests of blood and urine: no clinically significant changes
[5]; single dose study, not measured standing
  change in blood pressure: In no subject was there a significant change
[6]; administered with chemotherapy
  myelotoxicity: protects against myelotoxicity
[6]; oral administration, after cytotoxic drug therapy
  neutrophil recovery: stimulates neutrophil recovery
[6]; oral, mice, via an increase in G-CSF
  production of neutrophils: stimulates the production of neutrophils
[7]; oral administration, nude mice
  colon carcinoma growth: inhibits colon carcinoma growth
[7]; orally administered, syngeneic and xenograft mouse models
  development of tumours: inhibits the development of tumours
[8]; single daily dose of 5 mg and twice daily dose of 4 mg
  plasma level (Cmax) at safe doses: < 80 ng/mL
[8]; single oral dose 1 mg, n = 4
  AUC(0-48): 220.7 ng·h/mL
[8]; single oral dose 1 mg, median (range), n = 4
  tmax: 1 (1-2) h
[8]; single oral dose 5 mg, n = 4
  AUC(0-48): 872.3 ng·h/mL
[8]; single oral dose 5 mg, median (range), n = 4
  tmax: 1 (1-2) h
[8]; single oral dose 10 mg, n = 4
  AUC(0-48): 1780.0 ng·h/mL
[8]; single oral dose 10 mg, median (range), n = 4
  tmax: 1 (1-2) h
[8]; single oral doses
  inter-subject variability: low
[8]; single oral doses 1, 5, 10 mg
  pharmacokinetics (linearity): linear
[8]; single oral doses 1, 5, 10 mg, overall range
  tmax: 1 to 2 h
[8]; single oral doses, independent of dose
  apparent plasma clearance (CL/F): 47 L/h
